In publication PMC13205134, “Design, synthesis, and biological properties exhibited by 1,2,3-triazole based Grp94-selective inhibitors” (European journal of medicinal chemistry, 2025):

Experiments:
Grp94 = test: Competitive binding fluorescence polarization (FP) assay, Grp94; conditions: selectivity over Hsp90α; n.s. = non-selective
Description: The Fluorescence Polarization Assay (FP) was performed in 96-well flat-bottom plates (Santa Cruz Biotechnology) with a final volume of 100 μL per well. […] Each well contained 10 nM of Hsp90α or Grp94 (Enzo Biochem Inc.) and 6 nM of FITC-GDA (fluorescent tracer, stock in DMSO). Compounds were tested in triplicate at final concentrations of 100 μM, 10 μM, 1 μM, 0.1 μM and 0.01 μM with each final concentration containing 1 % DMSO. Each plate included control wells containing: (i) buffer only (background polarization), (ii) protein plus tracer (maximum polarization control), and (iii) tracer only (minimum polarization control). Plates were incubated on a rocker at 4 °C for 24 h.

Hsp90α = Hsp90α (Homo sapiens, UniProt P07900); test: Competitive binding fluorescence polarization (FP) assay, Hsp90α; conditions: FITC-GDA tracer, mean of triplicates ± SD, read-out: Apparent Kd Hsp90α
Description: The Fluorescence Polarization Assay (FP) was performed in 96-well flat-bottom plates (Santa Cruz Biotechnology) with a final volume of 100 μL per well. The assay buffer consisted of 20 mM HEPES, 50 mM KCl, 10.5 mM MgCl2, 20 mM Na2MoO4, 0.01 % NP-40 detergent (NP-40), and pH 7.3 with fresh 2 mM dithiothreitol (DTT) and 0.1 mg/mL bovine γ-globulin (BGG). Each well contained 10 nM of Hsp90α or Grp94 (Enzo Biochem Inc.) and 6 nM of FITC-GDA (fluorescent tracer, stock in DMSO). Compounds were tested in triplicate at final concentrations of 100 μM, 10 μM, 1 μM, 0.1 μM and 0.01 μM with each final concentration containing 1 % DMSO. Each plate included control wells containing: (i) buffer only (background polarization), (ii) protein plus tracer (maximum polarization control), and (iii) tracer only (minimum polarization control). Plates were incubated on a rocker at 4 °C for 24 h. Fluorescence polarization (mP units) was measured at 37 °C using excitation and emission wavelengths of 485 and 528 nm, respectively. Apparent Kd values were determined via calculations from the polarization data obtained at which the tracer was displaced by 50 % by the compounds of interest.
[I50] = concentration of free inhibitor at 50% inhibition, [L50] = concentration of free fluorescence labeled ligand molecule at 50% inhibition, [P0] = concentration of free protein at 0% inhibition, K = dissociation constant of the protein−ligand complex.^4

SMILES | Fold selective for Grp94 (Grp94) | Kd (Hsp90α) [µM]
COC(=O)c1c(O)cc(O)c(Cl)c1CCc1cnnn1Cc1ccccc1 [Compound 10, methyl 2-(2-(1-benzyl-1H-1,2,3-triazol-5-yl)ethyl)-3-chloro-4,6-dihydroxybenzoate] | n.s. | 0.62 ± 0.04
COC(=O)c1c(O)cc(O)c(Cl)c1CCn1nncc1Cc1ccccc1 [Compound 14, methyl 2-(2-(5-benzyl-1H-1,2,3-triazol-1-yl)ethyl)-3-chloro-4,6-dihydroxybenzoate] | 8 fold | 5.24 ± 0.24
COC(=O)c1c(O)cc(O)c(Cl)c1CCn1cc(Cc2ccccc2)nn1 [Compound 16, methyl 2-(2-(4-benzyl-1H-1,2,3-triazol-1-yl)ethyl)-3-chloro-4,6-dihydroxybenzoate] | n.s. | 6.79 ± 0.1
COC(=O)c1c(O)cc(O)c(Cl)c1CCn1nnnc1Cc1ccccc1 [Compound 20, methyl 2-(2-(5-benzyl-1H-tetrazol-1-yl)ethyl)-3-chloro-4,6-dihydroxybenzoate] | 3 fold | 1.63 ± 0.88
COC(=O)c1c(O)cc(O)c(Cl)c1CCn1nncc1Cc1ccc(F)cc1 [Compound 31, methyl 3-chloro-2-(2-(5-(4-fluorobenzyl)-1H-1,2,3-triazol-1-yl)ethyl)-4,6-dihydroxybenzoate] | 2 fold | 4.72 ± 0.44
COC(=O)c1c(O)cc(O)c(Cl)c1CCn1nncc1Cc1ccc(Cl)cc1 [Compound 32, methyl 3-chloro-2-(2-(5-(4-chlorobenzyl)-1H-1,2,3-triazol-1-yl)ethyl)-4,6-dihydroxybenzoate] | 9 fold | 5.7 ± 0.5
COC(=O)c1c(O)cc(O)c(Cl)c1CCn1nncc1Cc1ccc(Br)cc1 [Compound 33, methyl 2-(2-(5-(4-bromobenzyl)-1H-1,2,3-triazol-1-yl)ethyl)-3-chloro-4,6-dihydroxybenzoate] | 5 fold | 3.38 ± 0.33
COC(=O)c1c(O)cc(O)c(Cl)c1CCn1nncc1Cc1ccc(C)cc1 [Compound 34, methyl 3-chloro-4,6-dihydroxy-2-(2-(5-(4-methylbenzyl)-1H-1,2,3-triazol-1-yl)ethyl)benzoate] | 9 fold | 6.03 ± 0.37
CCc1ccc(Cc2cnnn2CCc2c(Cl)c(O)cc(O)c2C(=O)OC)cc1 [Compound 35, methyl 3-chloro-2-(2-(5-(4-ethylbenzyl)-1H-1,2,3-triazol-1-yl)ethyl)-4,6-dihydroxybenzoate] | n.s. | 0.81 ± 0.06
COC(=O)c1c(O)cc(O)c(Cl)c1CCn1nncc1Cc1ccc(OC)cc1 [Compound 36, methyl 3-chloro-4,6-dihydroxy-2-(2-(5-(4-methoxybenzyl)-1H-1,2,3-triazol-1-yl)ethyl)benzoate] | 7 fold | 41.5 ± 7.6
COC(=O)c1c(O)cc(O)c(Cl)c1CCn1nncc1Cc1ccc(Cl)c(Cl)c1 [Compound 37, methyl 3-chloro-2-(2-(5-(3,4-dichlorobenzyl)-1H-1,2,3-triazol-1-yl)ethyl)-4,6-dihydroxybenzoate] | 5 fold | 6.42 ± 0.45
COC(=O)c1c(O)cc(O)c(Cl)c1CCn1nncc1Cc1cccc(Cl)c1 [Compound 38, methyl 3-chloro-2-(2-(5-(3-chlorobenzyl)-1H-1,2,3-triazol-1-yl)ethyl)-4,6-dihydroxybenzoate] | 3 fold | 6.33 ± 1.33
COC(=O)c1c(O)cc(O)c(Cl)c1CCn1nncc1Cc1ccccc1Cl [Compound 39, methyl 3-chloro-2-(2-(5-(2-chlorobenzyl)-1H-1,2,3-triazol-1-yl)ethyl)-4,6-dihydroxybenzoate] | 2 fold | 8.32 ± 2.55

The remaining lines, values ahead:

Fold selective for Grp94 (Grp94) | Kd (Hsp90α) [µM] | SMILES
30 fold | 8.92 ± 0.16 | CCOc1ccccc1Cc1cnnn1CCc1c(Cl)c(O)cc(O)c1C(=O)OC [Compound 40, methyl 3-chloro-2-(2-(5-(2-ethoxybenzyl)-1H-1,2,3-triazol-1-yl)ethyl)-4,6-dihydroxybenzoate]
12 fold | 8.9 ± 0.21 | CCOc1cc(Cl)ccc1Cc1cnnn1CCc1c(Cl)c(O)cc(O)c1C(=O)OC [Compound 41, methyl 3-chloro-2-(2-(5-(4-chloro-2-ethoxybenzyl)-1H-1,2,3-triazol-1-yl)ethyl)-4,6-dihydroxybenzoate]
30 fold | 2.58 ± 0.36 | CCCOc1ccccc1Cc1cnnn1CCc1c(Cl)c(O)cc(O)c1C(=O)OC [Compound 42, methyl 3-chloro-4,6-dihydroxy-2-(2-(5-(2-propoxybenzyl)-1H-1,2,3-triazol-1-yl)ethyl)benzoate]
43 fold | 8.53 ± 1.05 | CCSc1ccccc1Cc1cnnn1CCc1c(Cl)c(O)cc(O)c1C(=O)OC [Compound 43, methyl 3-chloro-2-(2-(5-(2-(ethylthio)benzyl)-1H-1,2,3-triazol-1-yl)ethyl)-4,6-dihydroxybenzoate]
78 fold | 4.39 ± 0.17 | CCCSc1ccccc1Cc1cnnn1CCc1c(Cl)c(O)cc(O)c1C(=O)OC [Compound 44, methyl 3-chloro-4,6-dihydroxy-2-(2-(5-(2-(propylthio)benzyl)-1H-1,2,3-triazol-1-yl)ethyl)benzoate]
5 fold | 2.06 ± 0.87 | COC(=O)c1c(O)cc(O)c(Cl)c1CCn1nncc1Cc1ccccc1SC(C)C [Compound 45, methyl 3-chloro-4,6-dihydroxy-2-(2-(5-(2-(isopropylthio)benzyl)-1H-1,2,3-triazol-1-yl)ethyl)benzoate]
12 fold | 9.22 ± 0.48 | CCc1ccccc1Cc1cnnn1CCc1c(Cl)c(O)cc(O)c1C(=O)OC [Compound 46, methyl 3-chloro-2-(2-(5-(2-ethylbenzyl)-1H-1,2,3-triazol-1-yl)ethyl)-4,6-dihydroxybenzoate]
78 fold | 6.72 ± 0.15 | CCCCc1ccccc1Cc1cnnn1CCc1c(Cl)c(O)cc(O)c1C(=O)OC [Compound 48, methyl 2-(2-(5-(2-butylbenzyl)-1H-1,2,3-triazol-1-yl)ethyl)-3-chloro-4,6-dihydroxybenzoate]
6 fold | 0.92 ± 0.05 | COC(=O)c1c(O)cc(O)c(Cl)c1CCn1nncc1Cc1ccccc1CC(C)C [Compound 49, methyl 3-chloro-4,6-dihydroxy-2-(2-(5-(2-isobutylbenzyl)-1H-1,2,3-triazol-1-yl)ethyl)benzoate]
70 fold | 4.32 ± 0.39 | COC(=O)c1c(O)cc(O)c(Cl)c1CCn1nncc1Cc1ccccc1CCC(F)(F)F [Compound 50, methyl 3-chloro-4,6-dihydroxy-2-(2-(5-(2-(3,3,3-trifluoropropyl)benzyl)-1H-1,2,3-triazol-1-yl)ethyl)benzoate]
